# Assays:
# AGA Model = test: Macroscopic blind assessment of hair growth in DHT-induced AGA model mice (Example 5); format: in vivo, C57BL6 mice (males); settings: male mice, day 21, intradermal on day 0 and day 3, ATP 100 μM
# Experimental: The compositions for promoting hair growth of the invention were tested in vivo in mice, according to the following procedure.
# A total of 45 6-week-old C57BL6 mice (males) from Charles River Laboratories were used.
# The animals were acclimatized for 6 days, and they were administered 1 mg of DHT (5α-androstan-17β-ol-3-one, Sigma) in 100 μL of 50% DMSO (Merck)/50% Isotonic Saline Serum (Fresenius Kabi) subcutaneously for […] (5 days a week), resulting 19 administrations, instead of 20, because the dose was omitted on day 21, when the final assessment of hair growth took place. The administration of DHT began at day-4 of the testing.
# The concentration of ATP in Groups 3, 4, 5 and 6 was 100 μM.
# After 4 days of administration of the DHT solution (day 0), the target area was depilated using an electric shaver in the area delimited by a template. Subsequently, depilatory cream was applied with the aim of uniformizing the beginning of the anagen phase in all mice. This procedure was performed using inhalation sedation with 2% Isoflurane, maintaining the body temperature of the animals with an electric blanket and an infrared lamp. (FIG. 1). […]
# hair follicle cultures = settings: between ATP and adenosine; cited from earlier work
# androgen receptors = settings: hair follicles; cited from earlier work
smiles,measurement,setting,value
"Nc1ncnc2c1ncn2[C@@H]1O[C@H](COP(=O)(O)OP(=O)(O)OP(=O)(O)O)[C@@H](O)[C@H]1O [ATP non-encapsulated, adenosine triphosphate]",hair growth level: Intense (% of mice),"AGA Model; ADSCs high 4 × 10^6, low 1 × 10^6",80%
same,hair growth level: Moderate (% of mice),AGA Model; ADSCs high 4 × 10^6,20%
"Nc1ncnc2c1ncn2[C@@H]1O[C@H](COP(=O)(O)OP(=O)(O)OP(=O)(O)O)[C@@H](O)[C@H]1O [ATP, adenosine triphosphate]",synergistic action on hair growth of hair follicle cultures,hair follicle cultures,synergistic action
"C[C@]12CCC(=O)C[C@@H]1CC[C@@H]1[C@@H]2CC[C@]2(C)[C@@H](O)CC[C@@H]12 [DHT, 5α-androstan-17β-ol-3-one]",affinity towards androgen receptors,androgen receptors,higher affinity towards androgen receptors in the hair follicles
Nc1ncnc2c1ncn2[C@@H]1O[C@H](CO)[C@@H](O)[C@H]1O [adenosine],synergistic action on hair growth of hair follicle cultures,hair follicle cultures,synergistic action

# From patent US20260355251A1, “COMPOSITION FOR PROMOTING HAIR GROWTH” (Idea Therapeutics SL, priority 2023, published 2026)
